In patent US9241964B2, “Composition from Sphaeranthus indicus and Garcinia mangostana for the control of metabolic syndrome” (LAILA NUTRACEUTICALS, priority 2009, dated 2016):

Legend:
[1] = tested on: PPARγ; test: Immunoblot of PPARγ in 3T3-L1 adipocytes; type: cell-based, mouse; settings: immunoblot normalized with actin
From the text: (§1) The inventors have then evaluated the modulation of metabolic biomarkers those are primarily responsible for the adipogenesis processes, insulin resistance in type 2 diabetes, obesity, metabolic syndrome and other metabolic disorders such as Peroxisome proliferator-activated receptor gamma (PPARγ), CD36, adipocyte fatty acid binding protein 4 (FABP4 or aP2), Perilipin, and beta-3 Adrenergic Receptor (β3AR) during adipogenesis process in 3T3-L1 adipocytes by ethyl actate extract (LI/DD-II/054A/01) of Sphaeranthus indicus and 7-hydroxyfrullanolide (LI054A01) using an immunoblot assay. […] The protein extracts were evaluated by immunoblot assay, and the immuno-reactive bands were developed with West-pico chemiluminescent substrate and the blot images were captured in a Kodak Image Station, normalized with expression of actin.
(§2) Experimental protocol: Mouse pre-adipocyte 3T3-L1 cells are maintained in Dulbecco's Modified Eagles Medium (DMEM) supplemented with 2 mM glutamine, 4.5 g/L glucose and 10% fetal bovine serum. […] Protein content was measured in Bradford method by using Coomassie blue dye and cell lysates were stored in aliquots at −80° C. until further use. […]
(§3) Inhibition of protein expression of biomarker molecules adipocytes in presence or absence of Sphaeranthus indicus extract LI/DD-II/054A/01 and 7-hydroxyfrullanolide (LI054A01) was evaluated in immunoblot assay. […]

[2] = tested on: perilipin; test: Immunoblot of perilipin in 3T3-L1 adipocytes; type: cell-based, mouse; settings: immunoblot normalized with actin
From the text: as §1, §2, §3

`C=C1C(=O)O[C@H]2C3=C(C)CCC[C@]3(C)CC[C@@]12O` [LI054A01, 7-α-hydroxy-4,11(13)-eudesmadien-12,6-olide] was tested, and the PPARγ protein level [1] was “potently ameliorated” and the perilipin protein level [2] was “potently ameliorated”.
